Experimental data: PubChem BioAssay (NCI)
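GI50: concentration for 50% inhibition of growth. TGI: concentration producing complete growth inhibition.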

Tests used:
Assay in all cases: DTP human tumour cell line panel, 384-well format
SK-MEL-2 melanoma = system: SK-MEL-2 melanoma
HOP-62 NSCLC = system: HOP-62 NSCLC
MCF7 breast = system: MCF7 breast
ACHN renal = system: ACHN renal
SW-620 colon = system: SW-620 colon
SF-268 CNS = system: SF-268 CNS
U251 glioblastoma = system: U251 glioblastoma
MDA-MB-435 melanoma = system: MDA-MB-435 melanoma
HT29 colon = system: HT29 colon
RXF 393 renal = system: RXF 393 renal
T-47D breast = system: T-47D breast
UACC-62 melanoma = system: UACC-62 melanoma
CAKI-1 renal = system: CAKI-1 renal
OVCAR-8 ovarian = system: OVCAR-8 ovarian
SNB-19 CNS = system: SNB-19 CNS
RPMI-8226 leukemia = system: RPMI-8226 leukemia
NCI-H322M lung = system: NCI-H322M lung
A498 renal = system: A498 renal
NCI-H460 NSCLC = system: NCI-H460 NSCLC
EKVX NSCLC = system: EKVX NSCLC
KM12 colon = system: KM12 colon
HOP-92 NSCLC = system: HOP-92 NSCLC
UACC-257 melanoma = system: UACC-257 melanoma
NCI-H522 lung = system: NCI-H522 lung
786-0 renal = system: 786-0 renal
HCC-2998 colon = system: HCC-2998 colon
CCRF-CEM leukemia = system: CCRF-CEM leukemia
MALME-3M melanoma = system: MALME-3M melanoma
TK-10 renal = system: TK-10 renal
SK-OV-3 ovarian = system: SK-OV-3 ovarian
SK-MEL-5 melanoma = system: SK-MEL-5 melanoma
IGROV1 ovarian = system: IGROV1 ovarian
K-562 leukemia = system: K-562 leukemia
LOX IMVI melanoma = system: LOX IMVI melanoma
OVCAR-3 ovarian = system: OVCAR-3 ovarian
DU-145 prostate = system: DU-145 prostate
OVCAR-5 ovarian = system: OVCAR-5 ovarian
UO-31 renal = system: UO-31 renal
SF-539 CNS = system: SF-539 CNS
NCI/ADR-RES ovarian = system: NCI/ADR-RES ovarian
SF-295 CNS = system: SF-295 CNS
COLO 205 colon = system: COLO 205 colon
HS 578T breast = system: HS 578T breast
HCT-116 colon = system: HCT-116 colon
HCT-15 colon = system: HCT-15 colon
SNB-75 CNS = system: SNB-75 CNS
BT-549 breast = system: BT-549 breast

CN1CCN(c2ccc(-c3cccc(CN4CCOCC4)c3)cc2NC(=O)c2c[nH]c(=O)cc2C(F)(F)F)CC1
GI50 (SK-MEL-2 melanoma): 20.9 µM
TGI (SK-MEL-2 melanoma): 43.3 µM
GI50 (HOP-62 NSCLC): 21 µM
TGI (HOP-62 NSCLC): > 65.3 µM
GI50 (MCF7 breast): 16.8 µM
TGI (MCF7 breast): > 62.7 µM
GI50 (ACHN renal): 37.9 µM
TGI (ACHN renal): > 100 µM
GI50 (SW-620 colon): 11.7 µM
TGI (SW-620 colon): > 45.2 µM
GI50 (SF-268 CNS): 14.7 µM
TGI (SF-268 CNS): > 29.6 µM
GI50 (U251 glioblastoma): 12.1 µM
TGI (U251 glioblastoma): 30.9 µM
GI50 (MDA-MB-435 melanoma): 31.7 µM
TGI (MDA-MB-435 melanoma): > 100 µM
GI50 (HT29 colon): 14.2 µM
TGI (HT29 colon): 32 µM
GI50 (RXF 393 renal): 11.4 µM
TGI (RXF 393 renal): 33.3 µM
GI50 (T-47D breast): 23.1 µM
TGI (T-47D breast): > 88.9 µM
GI50 (UACC-62 melanoma): 19 µM
TGI (UACC-62 melanoma): 62.8 µM
GI50 (CAKI-1 renal): 25 µM
TGI (CAKI-1 renal): > 100 µM
GI50 (OVCAR-8 ovarian): 18.3 µM
TGI (OVCAR-8 ovarian): > 100 µM
GI50 (SNB-19 CNS): 46.3 µM
TGI (SNB-19 CNS): > 100 µM
GI50 (RPMI-8226 leukemia): 17.9 µM
TGI (RPMI-8226 leukemia): 43.4 µM
GI50 (NCI-H322M lung): 53.3 µM
TGI (NCI-H322M lung): > 100 µM
GI50 (A498 renal): 17.3 µM
TGI (A498 renal): 40.7 µM
GI50 (NCI-H460 NSCLC): 8.79 µM
TGI (NCI-H460 NSCLC): 23.5 µM
GI50 (EKVX NSCLC): 33.5 µM
TGI (EKVX NSCLC): > 100 µM
GI50 (KM12 colon): 15.9 µM
TGI (KM12 colon): > 87.6 µM
GI50 (HOP-92 NSCLC): 24.9 µM
TGI (HOP-92 NSCLC): > 77.4 µM
GI50 (UACC-257 melanoma): 15.3 µM
TGI (UACC-257 melanoma): 28.7 µM
GI50 (NCI-H522 lung): 22.8 µM
TGI (NCI-H522 lung): 69.6 µM
GI50 ([…]-0 renal): 10.4 µM
TGI (786-0 renal): 34.2 µM
GI50 (HCC-2998 colon): 29.9 µM
TGI (HCC-2998 colon): > 63.9 µM
GI50 (CCRF-CEM leukemia): 6.98 µM
TGI (CCRF-CEM leukemia): 13.8 µM
GI50 (MALME-3M melanoma): 14.7 µM
TGI (MALME-3M melanoma): 28.1 µM
GI50 (TK-10 renal): 30.5 µM
TGI (TK-10 renal): > 90.4 µM
GI50 (SK-OV-3 ovarian): > 61.1 µM
TGI (SK-OV-3 ovarian): > 100 µM
GI50 (SK-MEL-5 melanoma): 13.6 µM
TGI (SK-MEL-5 melanoma): 26.6 µM
GI50 (IGROV1 ovarian): 31.3 µM
TGI (IGROV1 ovarian): 98.2 µM
GI50 (K-562 leukemia): 12.3 µM
TGI (K-562 leukemia): 25.3 µM
GI50 (LOX IMVI melanoma): 9.13 µM
TGI (LOX IMVI melanoma): 23 µM
GI50 (OVCAR-3 ovarian): 18.9 µM
TGI (OVCAR-3 ovarian): > 74.4 µM
GI50 (DU-145 prostate): 19.5 µM
TGI (DU-145 prostate): > 100 µM
GI50 (OVCAR-5 ovarian): 40.9 µM
TGI (OVCAR-5 ovarian): > 100 µM
GI50 (UO-31 renal): 14.5 µM
TGI (UO-31 renal): > 100 µM
GI50 (SF-539 CNS): 12.3 µM
TGI (SF-539 CNS): 28.7 µM
GI50 (NCI/ADR-RES ovarian): > 58.1 µM
TGI (NCI/ADR-RES ovarian): > 100 µM
GI50 (SF-295 CNS): 17.8 µM
TGI (SF-295 CNS): 56.8 µM
GI50 (COLO 205 colon): 8.59 µM
TGI (COLO 205 colon): > 89 µM
GI50 (HS 578T breast): 12.2 µM
TGI (HS 578T breast): 34.4 µM
GI50 (HCT-116 colon): 12.7 µM
TGI (HCT-116 colon): > 78.2 µM
GI50 (HCT-15 colon): 12.3 µM
TGI (HCT-15 colon): 44.8 µM
GI50 (SNB-75 CNS): 22.2 µM
TGI (SNB-75 CNS): > 68.3 µM
GI50 (BT-549 breast): 26.5 µM
TGI (BT-549 breast): > 68.5 µM

c1ccc2c(NCCCN3CCN(CCCNc4c5ccccc5nc5ccccc45)CC3)c3ccccc3nc2c1
GI50 (SK-MEL-2 melanoma): 0.261 µM
TGI (SK-MEL-2 melanoma): 0.434 µM
GI50 (HOP-62 NSCLC): 0.0964 µM
TGI (HOP-62 NSCLC): 0.463 µM
GI50 (MCF7 breast): 0.208 µM
TGI (MCF7 breast): 0.909 µM
GI50 (ACHN renal): 0.345 µM
TGI (ACHN renal): 2.24 µM
GI50 (SW-620 colon): 0.452 µM
TGI (SW-620 colon): 2.35 µM
GI50 (SF-268 CNS): 0.301 µM
TGI (SF-268 CNS): 1.19 µM
GI50 (U251 glioblastoma): 0.223 µM
TGI (U251 glioblastoma): 0.766 µM
GI50 (MDA-MB-435 melanoma): 1.26 µM
TGI (MDA-MB-435 melanoma): 2.54 µM
GI50 (HT29 colon): 0.339 µM
TGI (HT29 colon): 1.53 µM
GI50 (RXF 393 renal): 0.421 µM
TGI (RXF 393 renal): 1.46 µM
GI50 (T-47D breast): 1.1 µM
TGI (T-47D breast): 3.61 µM
GI50 (UACC-62 melanoma): 0.336 µM
TGI (UACC-62 melanoma): 1.15 µM
GI50 (CAKI-1 renal): 0.929 µM
TGI (CAKI-1 renal): 4.69 µM
GI50 (OVCAR-8 ovarian): 0.296 µM
TGI (OVCAR-8 ovarian): 1.56 µM
GI50 (SNB-19 CNS): 0.433 µM
TGI (SNB-19 CNS): 6.93 µM
GI50 (RPMI-8226 leukemia): 0.134 µM
TGI (RPMI-8226 leukemia): 0.291 µM
GI50 (NCI-H322M lung): 0.277 µM
TGI (NCI-H322M lung): 1.38 µM
GI50 (A498 renal): 0.504 µM
TGI (A498 renal): 2.05 µM
GI50 (NCI-H460 NSCLC): 0.17 µM
TGI (NCI-H460 NSCLC): 0.384 µM
GI50 (EKVX NSCLC): 1.33 µM
TGI (EKVX NSCLC): 3.95 µM
GI50 (KM12 colon): 0.539 µM
TGI (KM12 colon): 2.26 µM
GI50 (HOP-92 NSCLC): 0.425 µM
TGI (HOP-92 NSCLC): 2.45 µM
GI50 (UACC-257 melanoma): 1.39 µM
TGI (UACC-257 melanoma): 2.7 µM
GI50 (NCI-H522 lung): 0.0647 µM
TGI (NCI-H522 lung): 0.26 µM
GI50 ([…]-0 renal): 0.204 µM
TGI (786-0 renal): 1.47 µM
GI50 (HCC-2998 colon): 0.391 µM
TGI (HCC-2998 colon): 1.51 µM
GI50 (CCRF-CEM leukemia): 0.118 µM
TGI (CCRF-CEM leukemia): 0.551 µM
GI50 (MALME-3M melanoma): 0.702 µM
TGI (MALME-3M melanoma): 1.88 µM
GI50 (TK-10 renal): 0.605 µM
TGI (TK-10 renal): 3.16 µM
GI50 (SK-OV-3 ovarian): 0.458 µM
TGI (SK-OV-3 ovarian): 2.45 µM
GI50 (SK-MEL-5 melanoma): 1.01 µM
TGI (SK-MEL-5 melanoma): 2.24 µM
GI50 (IGROV1 ovarian): 0.228 µM
TGI (IGROV1 ovarian): 1.43 µM
GI50 (K-562 leukemia): 1.11 µM
TGI (K-562 leukemia): 3.6 µM
GI50 (LOX IMVI melanoma): 0.665 µM
TGI (LOX IMVI melanoma): 1.86 µM
GI50 (OVCAR-3 ovarian): 0.651 µM
TGI (OVCAR-3 ovarian): 2.12 µM
GI50 (DU-145 prostate): 0.683 µM
TGI (DU-145 prostate): 3.49 µM
GI50 (OVCAR-5 ovarian): 0.378 µM
TGI (OVCAR-5 ovarian): 2.46 µM
GI50 (UO-31 renal): 1.78 µM
TGI (UO-31 renal): 4.05 µM
GI50 (SF-539 CNS): 0.159 µM
TGI (SF-539 CNS): 1.23 µM
GI50 (NCI/ADR-RES ovarian): 5.28 µM
TGI (NCI/ADR-RES ovarian): > 100 µM
GI50 (SF-295 CNS): 1.03 µM
TGI (SF-295 CNS): 3.49 µM
GI50 (COLO 205 colon): 1.28 µM
TGI (COLO 205 colon): 3.06 µM
GI50 (HS 578T breast): 0.174 µM
TGI (HS 578T breast): 1.17 µM
GI50 (HCT-116 colon): 0.267 µM
TGI (HCT-116 colon): 1.28 µM
GI50 (HCT-15 colon): 2.58 µM
TGI (HCT-15 colon): 8.97 µM
GI50 (SNB-75 CNS): 0.361 µM
TGI (SNB-75 CNS): 1.41 µM
GI50 (BT-549 breast): 1.2 µM
TGI (BT-549 breast): 2.57 µM
